US6455286B1, “Psoralens for pathogen inactivation” (Cerus Corporation, priority 1997, dated 2002)
Entries after “also recorded” stand apart in the source; their conditions may differ.

Assays:
R17 = R17 bacteriophage screen (photoinactivation, plaque assay on Hfr 3000 bacteria); type: cell-based; settings: for Average log Inactivation, 4 μM: compound at 4 μM; for Average log Inactivation, 4 μM / Average log Inactivation, 32 μM: 15% FBS in DMEM, UVA 1 J/cm^2, average of 1-4 replicates; for Average log Inactivation, 32 μM: compound at 32 μM
Excerpt: A discussion of inactivation of pathogens other than the R17 model discussed below can be found in U.S. Pat. No. 5,593,823. This reference enables the selection criteria for use in pathogen inactivation of blood products for the compounds of the present invention. The screening technique used to evaluate the compounds of the present invention is to perform a bacteriophage screen; an assay which determines nucleic acid binding of test compounds. A screen of this type, an R17 screen, is described in detail in EXAMPLE 13, below.
The R17 bacteriophage screen is believed to be predictive of HIV inactivation efficiency, as well as the efficiency of compounds against many other viruses. It is a small, single stranded RNA phage. […] Further, single stranded RNA pathogens are more difficult to inactivate because psoralens can neither intercalate between base pairs, as with double-stranded nucleic acids, nor form diadducts which function as interstrand crosslinks. Thus it is expected that when inactivation of R17 is achieved, these same conditions will cause the inactivation of many viruses and bacteria.
The R17 was grown up in Hfr 3000 bacteria, approximate titer 5×10^11. (R17 and Hfr 3000 were obtained from American Tissue Culture Collection (ATCC), Washington, D.C.) The R17 phage stock was added to a solution of 15% fetal bovine serum in DMEM to a final phage concentration of 10^8/mL. An aliquot (0.5 mL) was transferred to a 1.5 mL snap-top polyethylene tube. An aliquot (0.004-0.040 mL) of the test compound stock solution prepared in water, ethanol or dimethylsulfoxide at 0.5 mM was added to the tube. Compounds were tested at concentrations between 4 μM and 32 μM. (AMT is commercially available from HRI, Inc., Concord, Calif.; 8-MOP is commercially available from Sigma, St. Louis, Mo.). The tubes were placed in a light device similar to that described in U.S. Pat. No. 5,593,823 (Baxter Ultraviolet Irradiation System, modified #4R4440) and irradiated at a dose setting of 1 J/cm^2. Sterile 13 mL dilution tubes were prepared; each test compound required one tube with 0.4 mL of LB broth and five tubes containing 0.5 mL of LB broth. To make the dilutions, a 0.100 mL aliquot of the irradiated solution of phage and test compound was added to the first dilution tube of 0.4 mL of media then 0.020 mL of this solution was added to the second tube of 0.5 mL medium (1:25). The second solution was then diluted serially (1:25) into the remaining tubes. To each diluted sample was added 0.050 mL of Hfr 3000 bacteria cultured overnight and 3 mL of molten LB top agar and the mixed materials were poured onto LB broth plates. After the top agar hardened, the plates were incubated at 37° C. overnight. The plaque forming units were then counted the following morning and the titer of the phage remaining after phototreatment was calculated based on the dilution factors.
The following controls were run: the “phage only” in which phage was not treated with test compound and not irradiated (listed as “starting titer” in the tables below); and the “dark” control in which the phage/test compound solution was not irradiated before it was diluted and plated. A “UV only” control in which the phage was illuminated without treatment with test compound was not run with these experiments.

cell-free HIV (HIV-1) = test: Inactivation of cell-free HIV, residual infectivity by MT-2 microtiter plaque assay; type: cell-based; settings: compound at 32 μM; 1 minute irradiation 320-400 nm (20 mW/cm^2); DMEM/15% FBS
Method: Pathogen inactivation efficiency of three compounds tested in the previous example were evaluated by examining the ability of the compounds to inactivate cell-free virus (HIV). Inactivation of cell-free HIV was performed as follows.
Small aliquots of the compounds were added to stock HIV-1 to a compound concentration of 32 μM in a total of 0.5 mL. The stock HIV (10^5-10^7 plaque forming units/mL) was in DMEM/15% FBS. The 0.5 mL test aliquots were placed in 24 well polystyrene tissue culture plates and irradiated with 320-400 nm (20 mW/cm^2) for 1 minute on a device similar to the device of EXAMPLE 13. Controls included HIV-1 stock only, HIV-1 plus UVA only, and HIV-1 plus the highest concentration of each psoralen tested, with no UVA. Post irradiation, all samples were stored frozen at −70° C. until assayed for infectivity by a microtiter plaque assay. Aliquots for measurement of residual HIV infectivity in the samples were withdrawn and cultured.
Residual HIV infectivity was assayed using an MT-2 infectivity assay. (Previously described in Hanson, C. V., Crowford-Miksza, L. and Sheppard, H. W., J. Clin. Micro 28:2030 (1990)). The assay medium was 85% DMEM (with a high glucose concentration) containing 100 μg of streptomycin, 100 U of penicillin, 50 μg of gentamicin, and 1 μg of amphotericin B per mL, 15% FBS and 2 μg of Polybrene (Sigma Chemical Co., St. Louis, Mo.) per mL. Test and control samples from the inactivation procedure were diluted in a mixture of 50% assay medium and 50% normal human serum. The samples were serially diluted directly in 96-well plates (Corning Glass Works, corning, N.Y.). The plates were mixed on an oscillatory shaker for 30 seconds and incubated at 37° C. in a 5% CO2 atmosphere for 1 to 18 hours. […] After 24 to 48 hours, the orange fluorescence-stained microplaques were visualized by placing the plates on an 8,000 μW/cm^2 304 nm UV light box (Fotodyne, Inc., New Berlin, Wis.). The plaques were counted at a magnification of ×20 to ×25 through a stereomicroscope.

DNA = settings: cited from earlier work
[1] = Ames assay / bacterial assays, absence of light; cited from earlier work

Compound	Average log Inactivation, 4 μM (R17)	Average log Inactivation, 32 μM (R17)	also measured
Cc1oc2c(COCCN)c3oc(=O)cc(C)c3cc2c1C [Compound 40, 8-(4-amino-2-oxa)butyl-4,4′,5′-trimethylpsoralen]	2.1 log	>6.3 log	–
Cc1oc2c(CN)c3oc(=O)cc(C)c3cc2c1C [Compound 32, 8-aminomethyl-4,4′,5′-trimethylpsoralen]	1.1 log	–	Log Kill of cell-free HIV (cell-free HIV (HIV-1)): 1.1 log
Cc1coc2cc3oc(=O)c(CN)cc3cc12 [Compound 41, 3-aminomethyl-4′-methylpsoralen]	0 log	0.6 log	–
Cc1cc2cc3c(C)c(CCN)c(=O)oc3c(C)c2o1 [Compound 35, 3-amino ethyl-4,5′,8-trimethylpsoralen]	1.6 log	–	–
COc1c2occc2cc2ccc(=O)oc12 [Compound 8-MOP, 8-methoxypsoralen]	–	–	Photoactivated binding to nucleic acids (DNA): relatively low; Mutagenicity [1]: low mutagenicity
Cc1oc2cc3oc(=O)ccc3c(COCCN)c2c1C [Compound 39, 5-(4-amino-2-oxa)butyl-4′,5′-dimethylpsoralen]	1.6 log	>6.6 log	–
Cc1oc2c(C)c3oc(=O)cc(C)c3cc2c1CN [AMT, 4′-aminomethyl-4,5′,8-trimethylpsoralen, reference compound]	1.6 log	>6.5 log	Mutagenicity [1]: highly mutagenic; also recorded: significant levels of mutagenicity
Cc1coc2c(C)c3oc(=O)c(CN)c(C)c3cc12.Cl [Compound 31, 3-aminomethyl-4,4′,8-trimethylpsoralen hydrochloride]	3.1 log	–	Log Kill of cell-free HIV (cell-free HIV (HIV-1)): 1.9 log
Cc1coc2cc3oc(=O)cc(CN)c3cc12 [Compound 42, 4-aminomethyl-4′-methylpsoralen]	0 log	1.2 log	–
Cc1oc2c(C)c3oc(=O)cc(COCCN)c3cc2c1C [Compound 38, 4-(4-Amino-2-oxa)butyl-4′,5′,8-trimethylpsoralen]	2.2 log	≧4.0 log	–
Cc1cc2cc3c(C)c(COCCN)c(=O)oc3c(C)c2o1 [3-(4-amino-2-oxa)butyl-4,5′,8-trimethylpsoralen]	–	–	Effectiveness of R17 inactivation relative to AMT (R17; similar inactivation at less than half the AMT concentration, data not shown): at least twice as effective as AMT
Cc1oc2c(C)c3oc(=O)c(CN)c(C)c3cc2c1C [Compound 34, 3-aminomethyl-4,4′,5′,8-tetramethylpsoralen]	1.4 log	–	Log Kill of cell-free HIV (cell-free HIV (HIV-1)): 3.5 log
Cc1oc2c(C)c3oc(=O)cc(CN)c3cc2c1C [Compound 36, 4-aminomethyl-4′,5′,8-trimethylpsoralen]	0.1 log	1.1 log	–
Cc1cc2cc3c(C)cc(=O)oc3c(CN)c2o1.Cl [Compound 33, 8-aminomethyl-4,5′-dimethylpsoralen hydrochloride]	0.4 log	1.7 log	–
Cc1coc2c(C)c3oc(=O)c(COCCN)c(C)c3cc12 [Compound 37, 3-(4-amino-2-oxa)butyl-4,4′,8-trimethylpsoralen]	4.3 log	>6.5 log	–
